{
  "source": "patent US20080075628A1",
  "about": "“STERILIZED MINOCYCLINE AND RIFAMPIN-CONTAINING MEDICAL DEVICE” (MEDTRONIC, INC., priority 2006, published 2008)",
  "details": "for Recoverable rifampin after sterilization, Post EtO % / Recoverable rifampin after sterilization, Post e-beam % / Recoverable rifampin after sterilization, Post gamma % / Recoverable rifampin after sterilization, Post Steam %: relative to pre-sterilization (100%)",
  "protocol": "Materials and Methods: Minocycline and rifampin were incorporated into discs, sheet stock and silicone boots and subjected to Steam, EtO, gamma radiation and e-beam sterilization as follows:\nEach boot was cut into pieces (24) with scissors. The pieces were extracted together in a 60-125 ml jar w/top. All the pieces were placed in jar, and 4:1 THF/ethanol (50 mL for thick boots; 15 mL for thin boots) was added. The pieces were allowed to swell, and the drug is extracted for 1 hour (1st extraction). The extract was then collected and transferred to a 25-100 mL volumetric flask. A second 4:1 THF/ethanol (50 mL for thick boots w/holes; 10 mL for thin boots with holes) extraction was added to the jar, and the transfer pipette was rinsed with this second extract and discarded. The pieces were allowed to swell, and the drug is extracted for 1 hour (2nd extraction). The extract was then collected and transferred to the 25-100 mL volumetric flask containing the first extract. A small amount of extra solvent was needed to make up to volume due to solvent lost to evaporation and polymer swell. This amount also served as a final rinse of both the polymer and the transfer pipette.\nExtraction Process—Sheet Stock\nDiscs was cut from the sheet stock with a die press. The discs were extracted separate in a 1 oz jar w/top. 4:1 THF/ethanol (5 mL) was added. The pieces were allowed to swell, and the drug is extracted for 1 hour (1st extraction). The extract was then collected and transferred to a 10 mL volumetric flask. A second 4:1 THF/ethanol (5 mL) extraction was added to the jar, and the transfer pipette was rinsed with this second extract and discarded. The pieces were allowed to swell, and the drug is extracted for 1 hour. (2nd extraction). The extract was then collected and transferred to the 10 mL volumetric flask containing the first extract. A small amount of extra solvent was needed to make up to 10 mL due to solvent lost to evaporation and polymer swell. This amount also served as a final rinse of both the polymer and the transfer pipette.\nAfter extraction with THF/ethanol 4:1, extract was transferred to an HPLC vial and injected directly. The following high performance liquid chromatography (HPLC) method was used:\n1. Chromatographic Conditions: • Instrument: Agilent 1100 stack • Column: Prodigy analytical column (150×4.6 mm) • Detection mode: UV detection at 238 nm • Flow rate: 1.0 mL/min • Column temperature: 25° C. • Injection volume: 10 uL • Mobile phase A: 1.4 g/L dibasic sodium phosphate buffer pH 6.8 • Mobile phase B: ACN 100%",
  "note": "Values joined by “and” are separate entries in the source; they are usually repeats but may differ in a detail not shown here. Identical values can stand only once. Like-named read-outs stand apart in the source and are kept apart here.",
  "data": [
    {"molecule": "CN(C)c1ccc(O)c2c1C[C@H]1C[C@H]3[C@H](N(C)C)C(O)=C(C(N)=O)C(=O)[C@@]3(O)C(O)=C1C2=O", "note": "[minocycline]", "values": [
      {"measurement": "Recoverable minocycline remaining after sterilization, Post Steam %", "value": 0, "unit": "%"},
      {"measurement": "minocycline remaining with EtO sterilization", "value": "86.8-100%"}
    ]},
    {"molecule": "CO[C@H]1/C=C/O[C@@]2(C)Oc3c(C)c(O)c4c(O)c(c(/C=N/N5CCN(C)CC5)c(O)c4c3C2=O)NC(=O)/C(C)=C\\C=C\\[C@H](C)[C@H](O)[C@@H](C)[C@@H](O)[C@@H](C)[C@H](OC(C)=O)[C@@H]1C", "note": "[rifampin]", "values": [
      {"measurement": "rifampin remaining with EtO sterilization", "value": "46.0-77.5%"},
      {"measurement": "Recoverable rifampin after sterilization, Post EtO %", "setting": "medium 4735–0.005″ Sheet stock", "value": 46.0, "unit": "%"},
      {"measurement": "Recoverable rifampin after sterilization, Post EtO %", "setting": "medium 4735–0.015″ Sheet stock", "value": 72.0, "unit": "%"},
      {"measurement": "Recoverable rifampin after sterilization, Post EtO %", "setting": "medium 4850–0.005″ Boot", "value": 65.4, "unit": "%"},
      {"measurement": "Recoverable rifampin after sterilization, Post EtO %", "setting": "medium 4850–0.005″ Sheet Stock", "value": "74.1% and 59.1%"},
      {"measurement": "Recoverable rifampin after sterilization, Post EtO %", "setting": "medium 4850–0.015″ Boot", "value": 77.5, "unit": "%"},
      {"measurement": "Recoverable rifampin after sterilization, Post EtO %", "setting": "medium 4850–0.015″ Sheet Stock", "value": 71.6, "unit": "%"},
      {"measurement": "Recoverable rifampin after sterilization, Post e-beam %", "setting": "e-beam, medium 4735–0.015″ Boot", "value": 90.2, "unit": "%"},
      {"measurement": "Recoverable rifampin after sterilization, Post e-beam %", "setting": "e-beam, medium 4735–0.015″ Sheet stock", "value": "95.1% and 92.4%"},
      {"measurement": "incorporated rifampin recovered after e-beam sterilization", "setting": "e-beam, sheet stock, range", "value": "92.4-95.1%"},
      {"measurement": "incorporated rifampin recovered after ethylene oxide sterilization", "setting": "ethylene oxide, sheet stock incorporating minocycline and rifampin, range over the media tested", "value": "46.0-74.1%"},
      {"measurement": "Recoverable rifampin after sterilization, Post gamma %", "setting": "gamma radiation, medium 4735–0.005″ Sheet stock", "value": 81.4, "unit": "%"},
      {"measurement": "Recoverable rifampin after sterilization, Post gamma %", "setting": "gamma radiation, medium 4735–0.015″ Sheet stock", "value": "82.8% and 88.6%"},
      {"measurement": "Recoverable rifampin after sterilization, Post gamma %", "setting": "gamma radiation, medium 4850–0.005″ Sheet Stock", "value": 71.5, "unit": "%"},
      {"measurement": "Recoverable rifampin after sterilization, Post gamma %", "setting": "gamma radiation, medium 4850–0.015″ Sheet Stock", "value": 78.4, "unit": "%"},
      {"measurement": "incorporated rifampin recovered after gamma radiation", "setting": "gamma radiation, sheet stock, range over the media tested", "value": "75.1-88.6%"},
      {"measurement": "Recoverable rifampin after sterilization, Post Steam %", "setting": "steam sterilization, medium 4735–0.015″ Sheet stock", "value": 34.3, "unit": "%"},
      {"measurement": "Recoverable rifampin after sterilization, Post Steam %", "setting": "steam sterilization, medium 4850–0.005″ Sheet Stock", "value": 19.5, "unit": "%"},
      {"measurement": "Recoverable rifampin after sterilization, Post Steam %", "setting": "steam sterilization, medium 4850–0.015″ Sheet Stock", "value": 28.3, "unit": "%"},
      {"measurement": "rifampin recoverable after steam sterilization", "setting": "steam sterilization, silicone sheet stock, range over the media tested", "value": "19.5 to 34.3", "unit": "%"}
    ]}
  ]
}
